Tested on: human (tumor) Hif2α (EPAS1) mRNA
Test: Hif2α knockdown in orthotopic RCC tumor bearing mice, single injection of RNAi trigger-delivery polymer conjugate, RT-qPCR (Table 7)
Assay type: in vivo
Conditions: single tail vein injection, relative to isotonic glucose
Outline: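 Female athymic nude mice carried orthotopic A498-SEAP ccRCC kidney tumours, used 5–6 weeks after implantation. They received one tail-vein injection of RGD-targeted Hif2α RNAi trigger–polymer conjugate or isotonic glucose. Tumour Hif2α mRNA was measured by TaqMan RT-qPCR normalised to CycA (ΔΔCT) and expressed relative to glucose-treated mice.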

[1] = RNAi trigger 100 μg, polymer 100A 250 μg
[2] = RNAi trigger 100 μg, polymer 064 250 μg

Substance | Relative Expression day 4 (Hif2α mRNA in kidney tumor) [1] | Relative Expression day 4 (Hif2α mRNA in kidney tumor) [2] | other results
AD01654 (antisense TUUCAUGAAAUCGUUACGUTT; sense ACGUAACGAUUUCAUGAAA; Hif2alpha RNAi agent antisense strand; modified_base 2,4,6,8,10,13,14,16,18 /mod_base = “2′-deoxy-2′-fluoro corresponding nucleoside”; modified_base 3,5,7,9,11,12,15,17,19 /mod_base = “2′-O-methyl corresponding nucleoside”; modified_base 2,21 /mod_base = “5′-phosphorothioate corresponding nucleotide”; Hif2alpha RNAi agent sense strand; modified_base 1,3,5,8,9,11,13,15,17,19 /mod_base = “2′-deoxy-2′-fluoro corresponding nucleoside”; modified_base 2,4,6,7,10,12,14,16,18 /mod_base = “2′-O-methyl corresponding nucleoside”; modified_base 2 /mod_base = “5′-phosphorothioate corresponding nucleotide) | 0.185 | – | –
AD01655 (antisense TUUCAUGAAAUCGUUACGUTT; sense ACGUAACGAUUUCAUGAAAT; Hif2alpha RNAi agent antisense strand; modified_base 2,4,6,8,10,13,14,16,18 /mod_base = “2′-deoxy-2′-fluoro corresponding nucleoside”; modified_base 3,5,7,9,11,12,15,17,19 /mod_base = “2′-O-methyl corresponding nucleoside”; modified_base 2,21 /mod_base = “5′-phosphorothioate corresponding nucleotide”; Hif2alpha RNAi agent sense strand; modified_base 1,3,5,8,9,11,13,15,17,19 /mod_base = “2′-deoxy-2′-fluoro corresponding nucleoside”; modified_base 2,4,6,7,10,12,14,16,18 /mod_base = “2′-O-methyl corresponding nucleoside”; modified_base 20 /mod_base = “3′-3′-linked nucleotide”; modified_base 1 /) | 0.234 | – | –
AD01656 (antisense TUUCAUGAAAUCGUUACGUTT; sense ACGUAACGAUUUCAUGAAA; Hif2alpha RNAi agent antisense strand; modified_base 2,4,6,8,10,12,14,15,18 /mod_base = “2′-deoxy-2′-fluoro corresponding nucleoside”; modified_base 3,5,7,9,11,13,16,17,19 /mod_base = “2′-O-methyl corresponding nucleoside”; modified_base 2,21 /mod_base = “5′-phosphorothioate corresponding nucleotide”; Hif2alpha RNAi agent sense strand; modified_base 1,3,4,7,9,11,13,15,17,19 /mod_base = “2′-deoxy-2′-fluoro corresponding nucleoside”; modified_base 2,5,6,8,10,12,14,16,18 /mod_base = “2′-O-methyl corresponding nucleoside”; modified_base 2 /mod_base = “5′-phosphorothioate corresponding nucleotide) | 0.184 | – | –
AD01657 (antisense TUUCAUGAAAUCGUUACGUTT; sense ACGUAACGAUUUCAUGAAAT; Hif2alpha RNAi agent antisense strand; modified_base 2,4,6,8,10,12,14,15,18 /mod_base = “2′-deoxy-2′-fluoro corresponding nucleoside”; modified_base 3,5,7,9,11,13,16,17,19 /mod_base = “2′-O-methyl corresponding nucleoside”; modified_base 2,21 /mod_base = “5′-phosphorothioate corresponding nucleotide”; Hif2alpha RNAi agent sense strand; modified_base 1,3,4,7,9,11,13,15,17,19 /mod_base = “2′-deoxy-2′-fluoro corresponding nucleoside”; modified_base 2,5,6,8,10,12,14,16,18 /mod_base = “2′-O-methyl corresponding nucleoside”; modified_base 20 /mod_base = “3′-3′-linked nucleotide”; modified_base 1 /) | 0.256 | – | –
AD01658 (antisense TUUCAUGAAAUCGUUACGUTT; sense ACGUAACGAUUUCAUGAAA; Hif2alpha RNAi agent antisense strand; modified_base 2,4,6,8,10,12,14,15,18 /mod_base = “2′-deoxy-2′-fluoro corresponding nucleoside”; modified_base 3,5,7,9,11,13,16,17,19 /mod_base = “2′-O-methyl corresponding nucleoside”; modified_base 2,3,21 /mod_base = “5′-phosphorothioate corresponding nucleotide”; Hif2alpha RNAi agent sense strand; modified_base 1,3,4,7,9,11,13,15,17,19 /mod_base = “2′-deoxy-2′-fluoro corresponding nucleoside”; modified_base 2,5,6,8,10,12,14,16,18 /mod_base = “2′-O-methyl corresponding nucleoside”; modified_base 2 /mod_base = “5′-phosphorothioate corresponding nucleoti) | 0.138 | – | –
AD01659 (antisense TUUCAUGAAAUCGUUACGUTT; sense ACGUAACGAUUUCAUGAAAT; Hif2alpha RNAi agent antisense strand; modified_base 2,4,6,8,10,12,14,15,18 /mod_base = “2′-deoxy-2′-fluoro corresponding nucleoside”; modified_base 3,5,7,9,11,13,16,17,19 /mod_base = “2′-O-methyl corresponding nucleoside”; modified_base 2,3,21 /mod_base = “5′-phosphorothioate corresponding nucleotide”; Hif2alpha RNAi agent sense strand; modified_base 1,3,4,7,9,11,13,15,17,19 /mod_base = “2′-deoxy-2′-fluoro corresponding nucleoside”; modified_base 2,5,6,8,10,12,14,16,18 /mod_base = “2′-O-methyl corresponding nucleoside”; modified_base 20 /mod_base = “3′-3′-linked nucleotide”; modified_base 1) | 0.249 | – | –
AD01884 (antisense UUUCAUGAAAUCGUUACGUTT; sense ACGUAACGAUUUCAUGAAAT; Hif2alpha RNAi agent antisense strand; modified_base 2,4,6,8,10,14,16,18 /mod_base = “2′-deoxy-2′-fluoro corresponding nucleoside”; modified_base 1,3,5,7,9,11,12,13,15,17,19 /mod_base = “2′-O-methyl corresponding nucleoside”; modified_base 2,3,21 /mod_base = “5′-phosphorothioate corresponding nucleotide”; Hif2alpha RNAi agent sense strand; modified_base 1,3,5,7,8,9,11,13,15,17,19 /mod_base = “2′-deoxy-2′-fluoro corresponding nucleoside”; modified_base 2,4,6,10,12,14,16,18 /mod_base = “2′-O-methyl corresponding nucleoside”; modified_base 20 /mod_base = “3′-3′-linked nucleotide”; modified_base) | – | 0.091 | Relative Expression day 4 (Hif2α mRNA in kidney tumor) (RNAi trigger 50 μg, polymer 064 125 μg): 0.203; Relative Expression day 4 (Hif2α mRNA in kidney tumor) (RNAi trigger 75 μg, polymer 064 187.5 μg): 0.227
AD01885 (antisense UUUCAUGAAAUCGUUACGUTT; sense UAUACGUAACGAUUUCAUGAAAT; Hif2alpha RNAi agent antisense strand; modified_base 2,4,6,8,10,14,16,18 /mod_base = “2′-deoxy-2′-fluoro corresponding nucleoside”; modified_base 1,3,5,7,9,11,12,13,15,17,19 /mod_base = “2′-O-methyl corresponding nucleoside”; modified_base 2,3,21 /mod_base = “5′-phosphorothioate corresponding nucleotide”; Hif2alpha RNAi agent sense strand; modified_base 2 modified base = “2′-hydroxy corresponding nucleoside”; modified_base 4,6,8,10,11,12,14,16,18,20,22 /mod_base = “2′-deoxy-2′-fluoro corresponding nucleoside”; modified_base 1,3,5,7,9,13,15,17,19,21 /mod_base = “2′-O-methyl corresponding nucl) | – | 0.146 | –
AD01886 (antisense UCUAGCAACAAAACCUUAATT; sense UUAAGGUUUUGUUGCUAGAT; Hif2alpha RNAi agent antisense strand; modified_base 2,4,6,8,10,13,14,16,18 /mod_base = “2′-deoxy-2′-fluoro corresponding nucleoside”; modified_base 1,3,5,7,9,11,12,15,17,19 /mod_base = “2′-O-methyl corresponding nucleoside”; modified_base 2,3,21 /mod_base = “5′-phosphorothioate corresponding nucleotide”; Hif2alpha RNAi agent sense strand; modified_base 1,3,5,8,9,11,13,15,17,19 /mod_base = “2′-deoxy-2′-fluoro corresponding nucleoside”; modified_base 2,4,6,7,10,12,14,16,18 /mod_base = “2′-O-methyl corresponding nucleoside”; modified_base 20 /mod_base = “3′-3′-linked nucleotide”; modified_base) | – | 0.292 | –

Source: patent publication US9976141B2, “Compositions and methods for inhibiting gene expression of Hif2alpha” (Arrowhead Madison Inc., priority 2015, dated 2018)
